Data set [1] in a line: In vivo metabolism of compound of formula I in bile duct cannulated rats by LC/UV/MSn. Set-up: species or system rat. To be noted: BDC rats; for Relative abundance in gastrointestinal samples from rats dosed orally: 10 mg/kg oral, GIT at 9 hour; for Relative abundance in rat bile / Relative abundance in rat urine: 10 mg/kg; for Relative abundance in rat bile: bile over 9 hour; for Relative abundance in rat urine: urine over 9 hour. As to the method: The in vivo metabolism of compound of formula I was investigated in bile duct cannulated rats (n=2), following a single dose of 10 mg/kg either intravenously (IV) as a 10 minute infusion or orally by gavage. The vehicle used was 50 mM sodium acetate buffer, pH 4.6. The rats were fasted overnight and for the duration of the study. Urine and bile were collected over a 9 hour period. The gastrointestinal tract (GIT) and feces were collected at the end of the 9 hour study period. GIT and feces were homogenized with 3 volumes of water and 3 volumes of acetonitrile per volume of GIT/feces. Blood samples were collected at 15, 30 minutes, 1, 2, 4, 6 and 9 hours after intravenous and oral dosing in tubes containing EDTA and plasma was prepared by centrifugation. Samples were stored at −20° C. until analysis.
Plasma samples were pooled across collection intervals and treated with two volumes of acetonitrile. After centrifugation, the supernatent was removed and evaporated to dryness. The residues were then redissolved in 300 μl of methanol:water (1:1). Bile and urine samples from the BDC rat study were pooled across collection intervals. Bile samples were purified by sep-pak purification on C8 cartridges. The samples were evaporated and the residue was redissolved in 300 μl of methanol:water (1:1). Urine samples were diluted one to one with methanol and analyzed without further purification. All samples were analyzed by LC/UV/MS^n.
The HPLC system consisted of Waters alliance 2690 separation module. The column used was a Phenomenex Curosil PFP, 4.6 mm×150 mm, 5 μ particles with a flow rate of 1.0 mL/min. The mobile phase consisted of 95/5 v/v Water/Methanol containing 0.1% formic acid (Solvent A) and Methanol (Solvent B). The initial mobile phase composition was 20% Solvent B. After sample injection, this composition was held for 0.5 minute at initial conditions then ramped to 80% solvent B up to 24.5 min, and ramped to 100% solvent B up to 28 minutes. The mobile phase was then returned to initial conditions and the column re-equilibrated for 5 minutes. Total analysis time was 33 minutes.
The HPLC was interfaced to a Finnigan's Photo Diode Array Detector (PDA: UV6000) in tandem with Finnigan Deca XP ion trap mass spectrometer. Deca XP mass spectrometer was equipped with an Electrospray ionization source (ESI) interface. The source was operated in a positive ion mode with capillary temperature of 350° C. and source voltage 5.0 kV. The UV profile was extracted at […] of 254 nm. UHP (Ultra High Purity) nitrogen was used as sheath and auxiliary gas. The normalized collision energy was set at 50% and the isolation width was 3.0 amu. Multiple MS experiments were performed in a single chromatographic run with the following data dependent settings: […]

A short description of data set [2]: Radioactive metabolites in plasma, urine and feces after single oral dose of [14C] compound (I) to humans. It counts as in vivo, human. The conditions noted are these: for Metabolites in Feces (0-168 hr), Human, % Dose / Metabolites in Feces (0-168 hr), Human, % Rad / Metabolites in Urine (0-168 hr), Human, % Dose / Metabolites in Urine (0-168 hr), Human, % Rad: oral 100-mg; for Metabolites in Feces (0-168 hr), Human, % Dose / Metabolites in Feces (0-168 hr), Human, % Rad: pooled fecal extracts 0-168 hr; for Metabolites in Urine (0-168 hr), Human, % Dose / Metabolites in Urine (0-168 hr), Human, % Rad: pooled urine 0-168 hr; for % Distribution of radioactive metabolites in pooled plasma, Human (2 h): oral 100-mg [14C] compound (I), plasma 2 h. On the procedure: Plasma samples were segregated by collection time and equal volumes of individual plasma samples at a given time point were combined for biotransformation profiling.
The C-14 label was on the carbon-2 of the thiazole ring.
HPLC was performed on an Agilent 1100™ system equipped with binary pumps, autoinjector, and a column heater. A Phenomenex Synergy Polar-RP® column (4.6×250 mm, 5 micron) was used for metabolite separation. All HPLC analyses were performed at 1 mL/min flow rate at 35° C. The HPLC mobile phase consisted of (A) water with 0.1% formic acid and (B) acetonitrile with 0.1% formic acid.
Each fraction of column eluent was evaporated to dryness on a Savant Speed-Vac (Savant Instruments Inc., Holbrook, N.Y.) and counted for radioactivity with a Packard Top Count® microplate scintillation analyzer (Packard Biosciences, Downers Grove, Ill.).
The volumes of pooled plasma processed for HPLC analysis for rat, monkey and human ranged between 1.5 and 8.0 mL. Pooled plasma samples were extracted with methanol/acetonitrile (1:1) at a ratio of 2 volumes solvent to 1 volume of plasma. The mixtures were vortex mixed, sonicated for 5 min, and centrifuged at 3500 rpm for 10 min. The supernatants were transferred into new tubes. The remaining pellets were extracted two more times with 3 mL of methanol/acetonitrile (1:1). The supernatants were combined and evaporated to dryness in a Savant Speed-Vac (Savant Instruments, Inc., Holbrook, N.Y.). The residue was reconstituted into 0.35 to 0.45 mL of 30% acetonitrile in water, vortex mixed and centrifuged at 13000 rpm for 5 min (American Scientific Products Biofuge A centrifuge, Heraeus Sepatech GmbH, Germany). The supernatant was injected onto the HPLC for profiling. Aliquots of the reconstituted samples (30 μl) were also counted on the liquid scintillation counter (LSC) to determine the recovery of radioactivity.
The pooled monkey and human urine samples (3-5 mL) were extracted with 2 volumes of acetonitrile/acetone (1:1). The mixtures were vortex mixed, sonicated and centrifuged at 3500 rpm for 10 min. The supernatants were evaporated to dryness. The residue was suspended in 0.3-0.5 mL of 30% acetonitrile in water and centrifuged at 13000 rpm for 5 min. Aliquots of the supernatants were injected onto the HPLC or analyzed by LSC for radioactivity recovery. Pooled urine samples from BDC monkeys and rats were centrifuged at 13000 rpm for 10 min and injected onto the HPLC for profiling without further treatment.
The amount of fecal homogenate used for analysis was 0.20, 0.19 and 0.51 g for rat, monkey and human, respectively. Each pooled fecal homogenate was extracted by addition of 3 volumes of acetonitrile/methanol (1:1) to 1 volume of fecal homogenate and mixed on a vortex mixer. The mixture was sonicated for 5 min and then centrifuged at 3000 rpm for 10 min. The supernatants were removed and saved. The extraction was repeated two additional times and the supernatants were combined and evaporated to dryness on a Savant Speed-Vac. […] An aliquot of the supernatant was injected onto the HPLC or analyzed by LSC for radioactivity recovery.
The LC/MS system used for analysis of plasma, urine, bile, and fecal samples consisted of an Agilent 1100™ HPLC system connected to a Finnigan LCQ-DecaXP mass spectrometer. Samples were analyzed using positive electrospray ionization. The capillary temperature used for analysis was 320° C., and the nitrogen gas flow rate, spray current, and voltages were adjusted to give maximum sensitivity. The HPLC conditions were described in section 3.3.1.
Counts per min (CPM) were determined on a Packard TopCount NXT microplate scintillation and luminescence counter. For each injection, the average CPM value (2-4 CPM) obtained from fractions between 2-3 min (column void) in the chromatogram was subtracted from the CPM value of each fraction. Biotransformation profiles were prepared by plotting the background subtracted CPM values against time-after-injection.

`Cc1nc(Nc2ncc(C(=O)Nc3c(C)cccc3Cl)s2)cc(N2CCNCC2)n1` [M4 (II)]: in data set [1], the “Relative abundance in gastrointestinal samples from rats dosed orally” value (shortened to “Relative abundance … from rats dosed orally”) is “trace amounts”. Moreover, in data set [2], the “Metabolites in Feces (0-168 hr), Human, % Dose” value (“Metabolites in Feces … % Dose” for short) is listed as 2.6%; the “Metabolites in Feces (0-168 hr), Human, % Rad” value (“Metabolites in Feces … % Rad” below) was 3.1%; the “Metabolites in Urine (0-168 hr), Human, % Dose” value (from here on “Metabolites in Urine … % Dose”) is 0.05%; the “Metabolites in Urine (0-168 hr), Human, % Rad” value (from here on “Metabolites in Urine … % Rad”) is on record as 1.3%.
For the molecule `Cc1nc(Nc2ncc(C(=O)Nc3c(C)cccc3Cl)s2)cc(N2CC[N+]([O-])(CCO)CC2)n1` [M5 (III)], in data set [1], the “Relative abundance in rat bile” value was “major metabolites” and the “Relative abundance in rat urine” value is “major metabolite”. For the same molecule, in data set [2], the “% Distribution of radioactive metabolites in pooled plasma, Human (2 h)” value (“% Distribution” for short) turned out to be 4.5%; the “Metabolites in Urine … % Dose” value stood at 1.4%; the “Metabolites in Urine … % Rad” value is recorded as 39.8%.
Consider `Cc1nc(Nc2ncc(C(=O)Nc3c(C)cccc3Cl)s2)cc(N2CCN(CC(=O)O)CC2)n1` [M6 (IV), 2-(4-(6-(5-((2-Chloro-6-methylphenyl)carbamoyl)thiazol-2-ylamino)-2-methylpyrimidin-4-yl)piperazin-1-yl)acetic acid], for which, in data set [1], the “Relative abundance … from rats dosed orally” value was “trace amounts” and the “Relative abundance in rat bile” value was “major metabolites”. In data set [2], the “% Distribution” value was determined as 3.6%; the “Metabolites in Feces … % Dose” value is 8.9%; the “Metabolites in Feces … % Rad” value came to 10.4%; the “Metabolites in Urine … % Dose” value came out at 0.05%. In addition, the “Metabolites in Urine … % Rad” value in data set [2] is 1.3%.
Turning to `Cc1nc(Nc2ncc(C(=O)Nc3c(C)cc(O)cc3Cl)s2)cc(N2CCN(CCO)CC2)n1` [M20 (V)], in data set [2], the “% Distribution” value worked out at 12.5%; the “Metabolites in Feces … % Dose” value is 31.2%; the “Metabolites in Feces … % Rad” value was 36.6%; the “Metabolites in Urine … % Dose” value is on record as 0.2%. Moreover, the “Metabolites in Urine … % Rad” value in data set [2] is on record as 4.1%.
As for `Cc1nc(Nc2ncc(C(=O)Nc3c(Cl)cccc3CO)s2)cc(N2CCN(CCO)CC2)n1` [M24 (VI), N-(2-chloro-6-(hydroxymethyl)phenyl)-2-(6-(4-(2-hydroxyethyl)piperazin-1-yl)-2-methylpyrimidin-4-ylamino)thiazole-5-carboxamide], in data set [2], the “% Distribution” value amounted to 3.1%; the “Metabolites in Feces … % Dose” value was 4.0%; the “Metabolites in Feces … % Rad” value was 4.7%; the “Metabolites in Urine … % Dose” value is given as 0.2%. In addition, the “Metabolites in Urine … % Rad” value in data set [2] was 6.0%.
In the case of `Cc1nc(Nc2ncc(C(=O)Nc3c(C)cccc3Cl)s2)cc(N2CCN(CCO)CC2)n1` [Parent (I), N-(2-Chloro-6-methylphenyl)-2-[[6-[4-(2-hydroxyethyl)-1-piperazinyl]-2-methyl-4-pyrimidinyl]amino]-5-thiazolecarboxamide], the “Relative abundance in rat plasma” value in data set [1] (10 mg/kg IV or oral, pooled plasma, LC/UV/MSn) was “major peak”. In data set [1], the “Relative abundance … from rats dosed orally” value is “major drug related peak” and the “Relative abundance in rat urine” value is listed as “trace amounts”. For the same molecule, in data set [2], the “% Distribution” value came to 25.5%; the “Metabolites in Feces … % Dose” value stood at 19.1%; the “Metabolites in Feces … % Rad” value was found to be 22.4%; the “Metabolites in Urine … % Dose” value amounted to 0.1%. In addition, the “Metabolites in Urine … % Rad” value in data set [2] was 3.6%.

For the origin of these results see US20060211705A1, “'N-(2-chloro-6-methylphenyl)-2-[[6-[4-(2-hydroxyethyl)-1-piperazinyl]-2-methyl-4-pyrimidinyl]amino]-5-thiazolecarboxamides metabolites” (priority 2005, published 2006).
